The text below walks through data of article PMC4064249, “Differences in proton pumping and Na/H exchange at the leaf cell tonoplast between a halophyte and a glycophyte” (AoB Plants, 2014).

One assay concerns T1, V-H+-ATPase.
T1 construct: gene VHA-A
The note with it: ATP 0.05-1.5 mM, […] MgCl2, 100 mM KCl, MOPS-TRIS pH 7.0, 22 °C; control plants (10 mM NaCl); corrected for vesicle orientation. On the procedure:
ATP-dependent H+ transport, ACMA fluorescence quenching, Michaelis-Menten fit on V-H+-ATPase | Kinetic analysis was performed by fitting a Michaelis–Menten curve through the data points

The subject of a further assay is T2, V-H+-PPase.
T2 construct: gene VHP1
The note with it: PPi 0.005-[…], […] MgCl2, 100 mM KCl, MOPS-TRIS pH 7.0, 22 °C, corrected for vesicle orientation. On the procedure: PPi-dependent H+ transport, ACMA fluorescence quenching, Michaelis-Menten fit on V-H+-PPase | Kinetic analysis was performed by fitting a Michaelis–Menten curve through the data points

Where two headings read alike, the source gives them in different places.

On to `Nc1ncnc2c1ncn2[C@@H]1O[C@H](COP(=O)(O)OP(=O)(O)OP(=O)(O)O)[C@@H](O)[C@H]1O` [ATP], for which the Km with V-H+-ATPase stood at 250 ± 110 µM. For the molecule `O=P(O)(O)OP(=O)(O)O` [pyrophosphate], the Km came to 43 ± 24 µM in the assay on V-H+-PPase (control plants (0 mM NaCl)) and 34 ± 14 µM with V-H+-PPase (control plants (10 mM NaCl)).

A word on the Km: it is the substrate concentration at which the rate is half of its maximum.
